Biological target: T1, human type 5 17β-HSD (Homo sapiens, UniProt P42330)
T1 construct: encodes a protein having 323 amino acids with a calculated molecular weight of 36,844 daltons; expressed in transfected cells; host or cells: human embryonal kidney 293 cells (ATCC CRL 1573), transient transfection with pCMV vector
T1 sequence (P42330 1-323 H5Q): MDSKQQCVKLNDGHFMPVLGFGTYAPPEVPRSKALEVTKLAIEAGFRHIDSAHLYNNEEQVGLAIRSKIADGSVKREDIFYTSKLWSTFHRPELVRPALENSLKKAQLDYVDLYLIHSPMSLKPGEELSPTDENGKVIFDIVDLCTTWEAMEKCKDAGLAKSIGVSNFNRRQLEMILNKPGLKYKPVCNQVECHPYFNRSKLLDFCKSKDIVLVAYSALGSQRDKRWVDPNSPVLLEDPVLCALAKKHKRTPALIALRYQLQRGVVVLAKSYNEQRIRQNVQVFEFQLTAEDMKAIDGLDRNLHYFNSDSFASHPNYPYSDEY
Assay: Assay of enzymatic activity (substrate specificity) in 293 cells transfected with human type 5 17β-HSD
Format: cell-based
Settings: 0.1 μM 14C-labeled substrate, 1 hour incubation, transfected embryonal kidney (293) cells, FIG. 1A
Protocol: The concentration of each substrate was 0.1 μM. […] The substrates, progesterone (P) and Δ^4 -dione, were added at a concentration of 0.1 μM;
The vectors were transfected using the calcium phosphate procedure described by Kingston, R. E., In: Current Protocols in Molecular Biology, Ausubel et al. eds., pp. 9.1.1-9.1.9, John Wiley & Sons, N.Y. (1987) and used 1 to 10 μg of recombinant plasmid DNA per 10^6 cells. The total amount of DNA is kept at 10 μg of plasmid DNA per 10^6 cells by completing with pCMV plasmid without insert. The cells were initially plated at 10^4 cells/cm^2 in Falcon® culture flasks and grown in Dulbecco's modified Eagle's medium containing 10% (vol/vol) fetal bovine serum (hyclone, Logan, Utah) under a humidified atmosphere of air/CO^2 (95%/5%) at 37° C. and supplemented with 2 mM L-glutamine, 1 mM sodium pyruvate, 100 IU penicillin/ml, and 100 μbg streptomycin sulfate/ml.
See also Lachance et al., J. Biol. Chem., 265:20469-20475 (1990). […] After incubation for 1 hour, the steroids were extracted twice with 2 ml of ether. The organic phase was pooled and evaporated to dryness. The steroids were solubilized in 50 μl of dichloromethane, applied to a Silica gel 60 thin layer chromatography (TLC) plate (Merck, Darmstad, Germany) and then separated by migration in the toluene-acetone (4:1) solvent system (Luu-The, V. et al., J. Invest. Dennatol., 102:221-226 (1994) which is herein incorporated by reference).
As described above, the enzymatic activity of the type 5 17β-HSD was evaluated by transfecting 293 cells with vectors which included the gene encoding human type 5 17β-HSD.

C[C@]12CCC(=O)C[C@@H]1CC[C@@H]1[C@@H]2CC[C@]2(C)[C@@H](O)CC[C@@H]12 [DHT, dihydrotestosterone]
3α-HSD activity (transformation of DHT to 5α-androstane-3α,17β-diol): negligible

C[C@]12CC[C@@H]3c4ccc(O)cc4CC[C@H]3[C@@H]1CC[C@@H]2O [E2, estradiol]
ability of the enzyme to transform E1 and E2: negligible

C[C@]12CCC(=O)C=C1CC[C@@H]1[C@@H]2CC[C@]2(C)C(=O)CC[C@@H]12 [Δ^4dione, 4-androstene-3,17-dione]
17β-HSD activity (Δ4-dione converted to testosterone): high

CC(=O)[C@H]1CC[C@H]2[C@@H]3CCC4=CC(=O)CC[C@]4(C)[C@H]3CC[C@]12C [progesterone]
reductive 20α-HSD activity (progesterone transformed to 20α-OH-P): high

From US6124115A, “Production and use of isolated type 5 17β-hydroxysteroid dehydrogenase” (Endorecherche Inc., priority 1995, dated 2000)
